Where no end group is shown, it is not given here.
Columns and labels:
[1] = system: HIV-1IIIB; test: HIV-1 antiviral assay in CEM-SS cells
[2] = system: HCMV strain AD169; test: HCMV plaque assay in MRC-5 cells; details: for inhibition of HCMV plaque formation as compared to the virus control experiment: 10 micrograms per ml, MRC-5 cells, 7-10 days
[3] = system: hepatitis B virus (HBV) ayw strain; test: HBV experimental assay system (HepG2-2.2.15, TaqMan PCR of HBV DNA); format: cell-based; details: 10 micrograms per ml; HepG2-2.2.15, six days; combination 0.95 mole peptide 1 and 1.05 mole peptide 2
Source text: HepG2-2.2.15 is a stable cell line containing the hepatitis B virus (HBV) ayw strain genome (ATCC Cat. No. CRL-11997). Antiviral compounds blocking any late step of viral replication such as transcription, translation, pregenome encapsidation, reverse transcription, particle assembly and release can be identified and characterized using this cell line. In this assay, an active compound will reduce the production of secreted HBV from cells, measured by utilizing real time quantitative PCR (TaqMan) assay to directly and accurately measure HBV DNA copies.
HepG2-2.2.15 cells were plated in 96-well microtiter plates. After 16-24 hours the confluent monolayer of HepG2-2.2.15 cells was washed and the medium was replaced with complete medium containing test peptides—10 micrograms per ml—in duplicate. […] Six days following the initial administration of the peptides, the cell culture supernatants was collected, treated with pronase and DNAse and then used in a real-time quantitative TaqMan PCR assay. The PCR-amplified HBV DNA was detected in real-time by monitoring increases in fluorescence signals that result from the exonucleolytic degradation of a quenched fluorescence probe molecule that hybridizes to the amplified HBV DNA. […] Antiviral activity was calculated from the reduction in HBV DNA levels (% virus control). […]

[4] = system: Interleukin-2 (IL-2); test: Th1/Th2 cytokine profiling assay: IL-2; format: cell-based, mouse; details: 10 micrograms per ml, 72 hours
[5] = system: Interleukin-4 (IL-4); test: Th1/Th2 cytokine profiling assay: IL-4; format: cell-based, mouse; details: 10 micrograms per ml, Ovalbumin-restimulated spleen cells, 72 hours
[6] = system: Interleukin-5 (IL-5); test: Th1/Th2 cytokine profiling assay: IL-5; format: cell-based, mouse; details: 10 micrograms per ml; Ovalbumin-restimulated spleen cells, 72 hours
[7] = system: Interferon-γ (IFN-γ); test: Th1/Th2 cytokine profiling assay: IFN-γ; format: cell-based, mouse; details: 10 micrograms per ml; Ovalbumin-restimulated spleen cells, 72 hours; combination 0.95 mole peptide 1 and 1.05 mole peptide 2
[8] = system: Tumor Necrosis Factor-α (TNF-α); test: Th1/Th2 cytokine profiling assay: TNF-α; format: cell-based, mouse; details: 10 micrograms per ml; Ovalbumin-restimulated spleen cells, 72 hours; combination 0.95 mole peptide 1 and 1.05 mole peptide 2
[9] = system: Primary Human endothelial cells (HUVEC); test: Endothelial cell migration assay; format: cell-based; details: 10 micrograms per ml, 22 hours
[10] = system: HUVEC; test: Endothelial tube formation assay; format: cell-based, human; details: 10 micrograms per ml, 20 hours, combination peptide 1:peptide 2 1.10 mole:0.90 mole
Source text: Positive control was vehicle only.

[11] = system: MRSA; test: Methicillin Resistant Staphylococcus Aureus (MRSA) assay; details: 10 micrograms per ml; 5×10^5 CFU/mL; combination for instance 0.95 mole peptide 1 and 1.05 mole peptide 2

Row | Compound | antiviral activity of positive control compounds (HIV-1) [1] | inhibition of HBV replication as compared to the virus control infection [3] | change of the production of IFN-γ in murine spleen cells [7] | change of the production of TNF-alpha in murine spleen cells [8] | inhibition of the migration of human endothelial cells [9] | inhibition of the tube formation of human endothelial cells [10] | inhibition of HCMV plaque formation as compared to the virus control experiment [2] | inhibition of the growth of MRSA [11] | further results
1 | Cc1cn([C@H]2C[C@H](N=[N+]=[N-])[C@@H](CO)O2)c(=O)[nH]c1=O [AZT] | expected levels of antiviral activity | – | – | – | – | – | – | – | –
2 | Nc1nc(O)c2ncn(COC(CO)CO)c2n1 [Ganciclovir, reference compound] | – | – | – | – | – | – | – | – | antiviral activity of positive control compound (HCMV) ([2]; positive control compound): expected levels of antiviral activity
3 | CC(C)(C)NC(=O)[C@@H]1CN(Cc2cccnc2)CCN1C[C@@H](O)C[C@@H](Cc1ccccc1)C(=O)N[C@H]1c2ccccc2C[C@H]1O [indinavir] | expected levels of antiviral activity | – | – | – | – | – | – | – | –
4 | His-Ser-Asp-Gly-Thr-Phe-Thr-Ser-Glu-Leu-Ser-Arg-Leu-Arg-Glu-Gly-Ala-Arg-Leu-Gln-Arg-Leu-Leu-Gln-Gly-Leu-Val-NH2 [Peptide 1] | – | 27.6% | did not significantly change | did not significantly change | 2% | 33% | did not inhibit | 100% | decrease of the production of IL-2 in murine spleen cells ([4]; Ovalbumin-restimulated spleen cells of Balb/c mice): 77.7%; change of the production of IL-4 in murine spleen cells [5]: did not significantly change; decrease of the production of IL-5 [6]: 45.8%
5 | Thr-Ala-Pro-Arg-Ser-Leu-Arg-Arg-Ser-Ser-Cys-Phe-Gly-Gly-Arg-Met-Asp-Arg-Ile-Gly-Ala-Gln-Ser-Gly-Leu-Gly-Cys-Asn-Ser-Phe-Arg-Tyr-OH (TAPRSLRRSSCFGGRMDRIGAQSGLGCNSFRY-OH; ends and bridges not checked) [Peptide 2] | – | did not inhibit | did not significantly change | did not significantly change | 10% | 9% | did not inhibit | 100% | change of the production of IL-2 in murine spleen cells ([4]; Ovalbumin-restimulated spleen cells, combination 0.95 mole peptide 1 and 1.05 mole peptide 2): did not significantly change; suppression of the production of IL-4 in murine spleen cells [5]: 30.4%; induction of the production of IL-4 ([5]; combination 0.95 mole peptide 1 and 1.05 mole peptide 2): 59.7%
